Measured values published in patent US12570605B2, “Indole compounds, and preparation methods, and uses thereof” (Shenzhen 01 Life Science and Technology Co., Ltd., priority 2021, dated 2026).

System: mouse model with ear AD-like symptoms induced by calcipotriol (MC903)
Experiment: Mouse model with ear AD-like symptoms induced by calcipotriol (MC903), first batch of experiments (Embodiment 32)
Type: in vivo, BALB/c mouse
Conditions: MC903 6.9 nmol/mouse every day, both ears, 11 consecutive days, vs model control group (MC903+EtOH), Mann-Whitney test
Experimental: (§1) A mouse model with ear AD-like symptoms induced by calcipotriol (MC903) was used to investigate these compounds in terms of the treatment activity for AD.
(§2) Referring to the Patent with a publication number of CN 110368386 A, a mouse model induced by MC903 (Calcipotriene) was prepared, wherein both ears of the BALB/c mouse model were applied with MC903, MC903+indole-3-aldehyde (IAId), or MC903+the compound prepared from the embodiments for 11 consecutive days, respectively, and total serum IgE levels, ear thicknesses, and weight loss in relative to the weight at the beginning of the experiment were tested at the end of the experiment.
(§3) The data shown in the results were average values ±SD of five independently repeated trials. Significance analysis was performed using Mann-Whitney test on the differences of corresponding parameters of the mice with the treatment group (MC903+ethanol (EtOH)), which was only administrated with MC903, wherein * indicated P<0.05, ** indicated P<0.01; *** indicated P<0.001.
In this batch of experiments, the dosage of MC903, a drug for constructing the models, was 6.9 nmol/mouse every day, and the experimental results of Compounds 1, 2, 3, 6, 7, 19, 20, 28, 29, 30, 34, 37, 38, and 39 in this batch were shown in FIGS. 11 to 13.
(§4) EtOH group was a Blank control group, which was only administrated with ethanol. MC903+ EtOH group was a model control group, which was administrated with Calcipotriene and ethanol. The remaining groups were the groups which were administered with MC903 to construct the model, and then administrated with different drugs. Indole-3-aldehyde (IAId) group was the group administered with IAId, indole-3-methanol (I3C) group was the group administered with I3C. The other compound groups were the groups administered with corresponding compounds.

Row | Compound | reducing ear thicknesses of the mice | reducing the total serum IgE levels of the mice
1 | CCCCCC(=O)OCOC(=O)n1cc(C=O)c2ccccc21 [Compound 1, (hexanoyloxy)methyl 3-formyl-1H-indole-1-carboxylate] | statistically significant difference | statistically significant difference
2 | CCCCCCCC(=O)OCOC(=O)n1cc(C=O)c2ccccc21 [Compound 2, (octanoyloxy)methyl 3-formyl-1H-indole-1-carboxylate] |  | statistically significant difference
3 | CCCCCC(=O)OCOC(=O)n1cc(CO)c2ccccc21 [Compound 19, (hexanoyloxy)methyl 3-(hydroxymethyl)-1H-indole-1-carboxylate] | statistically significant difference | 
4 | CCCCCCCC(=O)OCOC(=O)n1cc(CO)c2ccccc21 [Compound 20, (octanoyloxy)methyl 3-(hydroxymethyl)-1H-indole-1-carboxylate] | statistically significant difference | 
5 | COCCOCCOCCOCCOCC(=O)OCn1cc(C=O)c2ccccc21 [Compound 34, (3-formyl-1H-indol-1-yl)methyl 2,5,8,11,14-pentaoxahexadecan-16-oate] | statistically significant difference | statistically significant difference
6 | CCCCCC(=O)OCn1cc(CO)c2ccccc21 [Compound 37, (3-(hydroxymethyl)-1H-indol-1-yl)methyl hexanoate] |  | statistically significant difference
7 | CCCCCCCCCC(=O)OCn1cc(CO)c2ccccc21 [Compound 39, (3-(hydroxymethyl)-1H-indol-1-yl)methyl decanoate] | statistically significant difference | statistically significant difference
8 | OCc1c[nH]c2ccccc12 [Compound I3C, indole-3-methanol, reference compound] | significantly reduced | significantly reduced

System: mouse model with ear AD-like symptoms induced by calcipotriol (MC903)
Experiment: Mouse model with ear AD-like symptoms induced by calcipotriol (MC903), second batch of experiments (Embodiment 32)
Type: in vivo, BALB/c mouse
Conditions: MC903 5 nmol/mouse every day, 9 days, vs model control group (MC903+EtOH), Mann-Whitney test
Experimental: as §1, §2, §3
Therefore, in the second batch of drug tests, the dosage of MC903 was decreased to 5 nmol/mouse every day, and the test period was reduced to 9 days.
as §4, with “then administered” for “then administrated”, “with IAId. Indole-3-methanol” for “with IAId, indole-3-methanol”

Row | Compound | reducing ear thicknesses of the mice | reducing the total serum IgE levels of the mice
9 | CC(=O)Oc1ccccc1C(=O)OCOC(=O)n1cc(C=O)c2ccccc21 [Compound 8, ((2-acetoxybenzoyl)oxy)methyl 3-formyl-1H-indole-1-carboxylate] | statistically significant difference | statistically significant difference
10 | CCCCCCCCCCCCCC(=O)OCOC(=O)n1cc(CO)c2ccccc21 [Compound 23, (tetradecanoyloxy)methyl 3-(hydroxymethyl)-1H-indole-1-carboxylate] |  | statistically significant difference
11 | CCCCCCCCCCCCCCCC(=O)OCOC(=O)n1cc(CO)c2ccccc21 [Compound 24, (palmitoyloxy)methyl 3-(hydroxymethyl)-1H-indole-1-carboxylate] |  | statistically significant difference
12 | CC(=O)Oc1ccccc1C(=O)OCOC(=O)n1cc(CO)c2ccccc21 [Compound 26, ((2-acetoxybenzoyl)oxy)methyl 3-(hydroxymethyl)-1H-indole-1-carboxylate] |  | statistically significant difference
13 | O=C(Cc1ccccc1Nc1c(Cl)cccc1Cl)OCOC(=O)n1cc(CO)c2ccccc21 [Compound 27, (2-(2-((2,6-dichlorophenyl)amino)phenyl)acetoxy)methyl 3-(hydroxymethyl)-1H-indole-1-carboxylate] | statistically significant difference | statistically significant difference
14 | CCCCCCCCCCCCCCCC(=O)OCn1cc(C=O)c2ccccc21 [Compound 33, (3-formyl-1H-indol-1-yl)methyl palmitate] |  | statistically significant difference
15 | CCCCCCCCCCCCCC(=O)OCn1cc(CO)c2ccccc21 [Compound 41, (3-(hydroxymethyl)-1H-indol-1-yl)methyl tetradecanoate] |  | statistically significant difference
